Molecular target: α1β2γ2 GABAA receptor (Homo sapiens (Human), UniProt P14867+P47870)
Test: Patch clamp electrophysiology of recombinant α1β2γ2 GABAA receptors in LTK cells
Assay type: cell-based
Details: 10 μM compound, Qpatch, Ltk cells, GABA EC20 2 μM; for activity at 10 µM: LTK, read-out: α1β2γ2 GABA Qpatch in Ltk (Efficacy at 10 μm)
Description: Cellular electrophysiology is used to measure the pharmacological properties of our GABAA receptor modulators in heterologous cell systems. Each compound is tested for its ability to affect GABA mediated currents at a submaximal agonist dose (GABA EC20=2 μM). LTK cells are stably transfected with the α1β2γ2 subunits of the GABA receptor and CHO cells are transiently transfected with the α4β3δ subunits via the Lipofecatamine method. Cells were passaged at a confluence of about 50-80% and then seeded onto 35 mm sterile culture dishes containing 2 ml culture complete medium without antibiotics or antimycotics. Confluent clusters of cells are electrically coupled (Pritchett et al., 1988). Because responses in distant cells are not adequately voltage clamped and because of uncertainties about the extent of coupling (Verdoorn et al., 1990), cells were cultivated at a density that enables the recording of single cells (without visible connections to other cells).
Whole cell currents were measured with HEKA EPC-10 amplifiers using PatchMaster software or by using the high throughput QPatch platform (Sophion). Bath solution for all experiments contained (in mM): NaCl 137 mM, KCl 4 mM, CaCl2 1.8 mM, MgCl2 1 mM, HEPES 10 mM, D-Glucose 10 mM, pH (NaOH) 7.4. In some cases 0.005% cremophor was also added. Intracellular (pipette) solution contained: KCl 130 mM, MgCl2 1 mM, Mg-ATP 5 mM, HEPES 10 mM, EGTA 5 mM, pH 7.2. During experiments, cells and solutions were maintained at room temperature (19° C.-30° C.). For manual patch clamp recordings, cell culture dishes were placed on the dish holder of the microscope and continuously perfused (1 ml/min) with bath solution. After formation of a Gigaohm seal between the patch electrodes and the cell (pipette resistance range: 2.5 MΩ-6.0 MΩ; seal resistance range: >1 GΩ) the cell membrane across the pipette tip was ruptured to assure electrical access to the cell interior (whole-cell patch-configuration). For experiments using the QPatch system, cells were transferred as suspension to the QPatch system in the bath solution and automated whole cell recordings were performed.
Cells were voltage clamped at a holding potential of −80 mV. For the analysis of test articles, GABA receptors were stimulated by 2 μM GABA after sequential pre-incubation of increasing concentrations of the test article. Pre-incubation duration was 30 s and the duration of the GABA stimulus was 2 s. Test articles were dissolved in DMSO to form stock solutions (10 mM). Test articles were diluted to 0.01, 0.1, 1, and 10 μM in bath solution. All concentrations of test articles were tested on each cell. The relative percentage potentiation was defined as the peak amplitude in response to GABA EC20 in the presence of the test article divided by the peak amplitude in response to GABA EC20 alone, multiplied by 100.

Compound | activity at 10 µM [%] | α1β2γ2 GABA Qpatch in Ltk (Efficacy at 10 μm)
C[C@]12CC[C@H]3[C@@H](CC[C@@H]4C[C@@](O)(CF)CC[C@@H]43)[C@@H]1CC[C@@H]2C(=O)Cn1ncc2ncccc21 [SA-84] | 100 to 500 | –
C[C@]12CC[C@H]3[C@@H](CC[C@@H]4C[C@@](O)(CF)CC[C@@H]43)[C@@H]1CC[C@@H]2C(=O)Cn1cc2ccncc2n1 [SA-85] | > 500 | –
C[C@]12CC[C@H]3[C@@H](CC[C@@H]4C[C@@](O)(CF)CC[C@@H]43)[C@@H]1CC[C@@H]2C(=O)Cn1ncc2ccncc21 [SA-86] | 100 to 500 | –
C[C@]12CC[C@H]3[C@@H](CC[C@@H]4C[C@@](O)(CF)CC[C@@H]43)[C@@H]1CC[C@@H]2C(=O)Cn1nc2ccc(F)cc2n1 [SA-89] | 100 to 500 | –
C[C@]12CC[C@H]3[C@@H](CC[C@@H]4C[C@@](O)(C(F)F)CC[C@@H]43)[C@@H]1CC[C@@H]2C(=O)Cn1nnc2ccccc21 [SA-90] | 10 to 100 | –
C[C@]12CC[C@H]3[C@@H](CC[C@@H]4C[C@@](O)(C(F)F)CC[C@@H]43)[C@@H]1CC[C@@H]2C(=O)Cn1nc2ccccc2n1 [SA-92] | 100 to 500 | –
C[C@]12CC[C@H]3[C@@H](CC[C@@H]4C[C@@](O)(C(F)F)CC[C@@H]43)[C@@H]1CC[C@@H]2C(=O)Cn1cc2ncccc2n1 [SA-93] | > 500 | –
C[C@]12CC[C@H]3[C@@H](CC[C@@H]4C[C@@](O)(C(F)F)CC[C@@H]43)[C@@H]1CC[C@@H]2C(=O)Cn1ncc2ncccc21 [SA-94] | 100 to 500 | –
C[C@]12CC[C@H]3[C@@H](CC[C@@H]4C[C@@](O)(C(F)F)CC[C@@H]43)[C@@H]1CC[C@@H]2C(=O)Cn1nnc2cnccc21 [SA-96] | 100 to 500 | –
C[C@]12CC[C@H]3[C@@H](CC[C@@H]4C[C@@](O)(C(F)F)CC[C@@H]43)[C@@H]1CC[C@@H]2C(=O)Cn1nc2ccncc2n1 [SA-97] | > 500 | –
C[C@]12CC[C@H]3[C@@H](CC[C@@H]4C[C@@](O)(C(F)F)CC[C@@H]43)[C@@H]1CC[C@@H]2C(=O)Cn1cc2ccncc2n1 [SA-99] | > 500 | –
C[C@]12CC[C@H]3[C@@H](CC[C@@H]4C[C@@](O)(C(F)F)CC[C@@H]43)[C@@H]1CC[C@@H]2C(=O)Cn1nc2ccc(F)cc2n1 [SA-104] | 100 to 500 | –
Cn1c(CC(=O)[C@H]2CC[C@H]3[C@@H]4CC[C@@H]5C[C@](C)(O)CC[C@@H]5[C@H]4CC[C@]23C)nc2ccccc21 [SA-105] | > 500 | –
CC[C@@]1(O)CC[C@H]2[C@H](CC[C@@H]3[C@@H]2CC[C@]2(C)[C@@H](C(=O)Cn4cc5ncccc5n4)CC[C@@H]32)C1 [SA-110] | > 500 | –
CC[C@@]1(O)CC[C@H]2[C@H](CC[C@@H]3[C@@H]2CC[C@]2(C)[C@@H](C(=O)Cn4ncc5ncccc54)CC[C@@H]32)C1 [SA-111] | > 500 | –
CC[C@@]1(O)CC[C@H]2[C@H](CC[C@@H]3[C@@H]2CC[C@]2(C)[C@@H](C(=O)Cn4nnc5cnccc54)CC[C@@H]32)C1 [SA-112] | 100 to 500 | –
CC[C@@]1(O)CC[C@H]2[C@H](CC[C@@H]3[C@@H]2CC[C@]2(C)[C@@H](C(=O)Cn4nnc5ccncc54)CC[C@@H]32)C1 [SA-113] | 100 to 500 | –
CC[C@@]1(O)CC[C@H]2[C@H](CC[C@@H]3[C@@H]2CC[C@]2(C)[C@@H](C(=O)Cn4nc5ccncc5n4)CC[C@@H]32)C1 [SA-114] | > 500 | –
COC[C@@]1(O)CC[C@H]2[C@H](CC[C@@H]3[C@@H]2CC[C@]2(C)[C@@H](C(=O)Cn4nnc5ccccc54)CC[C@@H]32)C1 [SA-115] | > 500 | –
COC[C@@]1(O)CC[C@H]2[C@H](CC[C@@H]3[C@@H]2CC[C@]2(C)[C@@H](C(=O)Cn4cc5ncccc5n4)CC[C@@H]32)C1 [SA-116] | > 500 | –
COC[C@@]1(O)CC[C@H]2[C@H](CC[C@@H]3[C@@H]2CC[C@]2(C)[C@@H](C(=O)Cn4ncc5ncccc54)CC[C@@H]32)C1 [SA-117] | > 500 | –
COC[C@@]1(O)CC[C@H]2[C@H](CC[C@@H]3[C@@H]2CC[C@]2(C)[C@@H](C(=O)Cn4cc5ccncc5n4)CC[C@@H]32)C1 [SA-118] | > 500 | –
COC[C@@]1(O)CC[C@H]2[C@H](CC[C@@H]3[C@@H]2CC[C@]2(C)[C@@H](C(=O)Cn4ncc5ccncc54)CC[C@@H]32)C1 [SA-119] | > 500 | –

Compound | activity at 10 µM [%] | α1β2γ2 GABA Qpatch in Ltk (Efficacy at 10 μm)
COC[C@@]1(O)CC[C@H]2[C@H](CC[C@@H]3[C@@H]2CC[C@]2(C)[C@@H](C(=O)Cn4nc5ccc(F)cc5n4)CC[C@@H]32)C1 [SA-122] | 100 to 500 | –
COC[C@@]1(O)CC[C@H]2[C@H](CC[C@@H]3[C@@H]2CC[C@]2(C)[C@@H](C(=O)Cn4nnc5cnccc54)CC[C@@H]32)C1 [SA-123] | 100 to 500 | –
COC[C@@]1(O)CC[C@H]2[C@H](CC[C@@H]3[C@@H]2CC[C@]2(C)[C@@H](C(=O)Cn4nnc5ccncc54)CC[C@@H]32)C1 [SA-124] | 100 to 500 | –
C[C@@]1(O)CC[C@H]2[C@@H](CC[C@@H]3[C@@H]2CC[C@]2(C)[C@@H](C(=O)Cn4nnc5ccccc54)CC[C@@H]32)C1 [SB-1] | 100 to 500 | –
C[C@@]1(O)CC[C@H]2[C@@H](CC[C@@H]3[C@@H]2CC[C@]2(C)[C@@H](C(=O)Cn4nc5ccccc5n4)CC[C@@H]32)C1 [SB-2] | > 500 | –
C[C@@]1(O)CC[C@H]2[C@@H](CC[C@@H]3[C@@H]2CC[C@]2(C)[C@@H](C(=O)Cn4ncc5ncccc54)CC[C@@H]32)C1 [SB-5] | – | B (“B” indicates an efficacy value of >100-500%)
C[C@@]1(O)CC[C@H]2[C@@H](CC[C@@H]3[C@@H]2CC[C@]2(C)[C@@H](C(=O)Cn4nnc5cnccc54)CC[C@@H]32)C1 [SB-7] | 100 to 500 | –
C[C@@]1(O)CC[C@H]2[C@@H](CC[C@@H]3[C@@H]2CC[C@]2(C)[C@@H](C(=O)Cn4ncc5ccncc54)CC[C@@H]32)C1 [SB-10] | – | B (“B” indicates an efficacy value of >100-500%)
C[C@@]1(O)CC[C@H]2[C@@H](CC[C@@H]3[C@@H]2CC[C@]2(C)[C@@H](C(=O)Cn4nc5ccc(F)cc5n4)CC[C@@H]32)C1 [SB-11] | 100 to 500 | –
C[C@]12CC[C@H]3[C@@H](CC[C@H]4C[C@@](O)(CF)CC[C@@H]43)[C@@H]1CC[C@@H]2C(=O)Cn1nnc2ccccc21 [SB-12] | 100 to 500 | –
C[C@]12CC[C@H]3[C@@H](CC[C@H]4C[C@@](O)(CF)CC[C@@H]43)[C@@H]1CC[C@@H]2C(=O)Cn1nc2ccccc2n1 [SB-13] | 100 to 500 | –
C[C@]12CC[C@H]3[C@@H](CC[C@H]4C[C@@](O)(CF)CC[C@@H]43)[C@@H]1CC[C@@H]2C(=O)Cn1nnc2cnccc21 [SB-14] | 10 to 100 | –
C[C@]12CC[C@H]3[C@@H](CC[C@H]4C[C@@](O)(CF)CC[C@@H]43)[C@@H]1CC[C@@H]2C(=O)Cn1cc2ncccc2n1 [SB-16] | 100 to 500 | –
C[C@]12CC[C@H]3[C@@H](CC[C@H]4C[C@@](O)(CF)CC[C@@H]43)[C@@H]1CC[C@@H]2C(=O)Cn1ncc2ncccc21 [SB-17] | 10 to 100 | –
C[C@]12CC[C@H]3[C@@H](CC[C@H]4C[C@@](O)(CF)CC[C@@H]43)[C@@H]1CC[C@@H]2C(=O)Cn1cc2ccncc2n1 [SB-18] | > 500 | –
C[C@]12CC[C@H]3[C@@H](CC[C@H]4C[C@@](O)(CF)CC[C@@H]43)[C@@H]1CC[C@@H]2C(=O)Cn1ncc2ccncc21 [SB-19] | 100 to 500 | –
C[C@]12CC[C@H]3[C@@H](CC[C@H]4C[C@@](O)(CF)CC[C@@H]43)[C@@H]1CC[C@@H]2C(=O)Cn1nnc2ccncc21 [SB-26] | 10 to 100 | –
CC[C@@]1(O)CC[C@H]2[C@@H](CC[C@@H]3[C@@H]2CC[C@]2(C)[C@@H](C(=O)Cn4cc5ncccc5n4)CC[C@@H]32)C1 [SB-29] | 100 to 500 | –
CC[C@@]1(O)CC[C@H]2[C@@H](CC[C@@H]3[C@@H]2CC[C@]2(C)[C@@H](C(=O)Cn4ncc5ncccc54)CC[C@@H]32)C1 [SB-30] | 100 to 500 | –
CC[C@@]1(O)CC[C@H]2[C@@H](CC[C@@H]3[C@@H]2CC[C@]2(C)[C@@H](C(=O)Cn4ncc5ccncc54)CC[C@@H]32)C1 [SB-32] | 100 to 500 | –
CC[C@@]1(O)CC[C@H]2[C@@H](CC[C@@H]3[C@@H]2CC[C@]2(C)[C@@H](C(=O)Cn4nc5ccncc5n4)CC[C@@H]32)C1 [SB-34] | > 500 | –
CC[C@@]1(O)CC[C@H]2[C@@H](CC[C@@H]3[C@@H]2CC[C@]2(C)[C@@H](C(=O)Cn4nnc5ccccc54)CC[C@@H]32)C1 [SB-35] | 10 to 100 | –

Reference: patent US11261211B2, “19-NOR neuroactive steroids and methods of use thereof” (Sage Therapeutics, Inc., priority 2013, dated 2022)
